Tests used:
[1] = biological target: T1, human MCT3 (Homo sapiens, UniProt O95907); assay: MCT filter binding assay, yeast membranes, radioligand specific binding; details: ~2.5 nM radioligand
T1 construct: the full length open reading frame of human MCT3 was subcloned into the S. cerevisiae expression plasmid pACES14; made in house; host or cells: Saccharomyces cerevisiae BY4742 (jen1 deletion), membrane preparation; plasmid pACES14-hMCT3
T1 sequence (O95907 1-504): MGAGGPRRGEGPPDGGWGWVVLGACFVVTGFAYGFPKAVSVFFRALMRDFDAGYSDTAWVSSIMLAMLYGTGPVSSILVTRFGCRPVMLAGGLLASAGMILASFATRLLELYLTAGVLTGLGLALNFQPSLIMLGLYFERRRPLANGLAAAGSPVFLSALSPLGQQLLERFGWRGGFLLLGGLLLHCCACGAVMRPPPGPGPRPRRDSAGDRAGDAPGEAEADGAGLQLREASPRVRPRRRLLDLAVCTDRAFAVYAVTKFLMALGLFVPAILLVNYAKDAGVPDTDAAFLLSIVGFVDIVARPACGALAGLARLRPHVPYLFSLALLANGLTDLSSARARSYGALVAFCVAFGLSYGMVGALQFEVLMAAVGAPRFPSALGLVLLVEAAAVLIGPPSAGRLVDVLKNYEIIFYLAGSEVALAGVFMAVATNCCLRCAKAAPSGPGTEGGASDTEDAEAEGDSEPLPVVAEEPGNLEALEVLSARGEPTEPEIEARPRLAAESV
Method: (§1) For yeast cells transformed with expression plasmids containing the human MCT 1-4 ORFs the ability of membrane preparations to bind radioligand was determined using a single ligand concentration/multi protein concentration binding assay. This generated an estimate of the amount of active binding protein present in each membrane preparation. The ligand concentration used will give an estimate of Bmax that is approximately 90% of the true value. 10 μl of ligand A, B or C that had been diluted 50 fold with assay buffer (50 mM HEPES, 0.1 mM EDTA, 0.15 M NaCl, pH 7.5, 0.5% BSA) was dispensed into wells of a polypropylene microtitre plate. This gives a final radiolabelled ligand concentration of ˜2.5 nM. […] The membranes were diluted to give a known amount/180 μl assay buffer. This is typically in the […] range. For the membranes with high binding site number a more dilute membrane preparation should be added. 180 μl of each membrane solution was then added to each well and incubated at 2 hours at room temperature with shaking. The membranes were harvested onto GF-B filter plates and washed with assay buffer without BSA, dried, scintillant added and counts detected using the relevant program for each ligand on a Packard Top Count plate reader.

[2] = biological target: T2, MCT1 (Homo sapiens, UniProt P53985, D490E); assay: as above; parameters: made in house; host or cells: Saccharomyces cerevisiae BY4742 (jen1 deletion), membrane preparation; plasmid pACES14-hMCT1; details: ~2.5 nM radioligand
T2 sequence (P53985 1-500 D490E): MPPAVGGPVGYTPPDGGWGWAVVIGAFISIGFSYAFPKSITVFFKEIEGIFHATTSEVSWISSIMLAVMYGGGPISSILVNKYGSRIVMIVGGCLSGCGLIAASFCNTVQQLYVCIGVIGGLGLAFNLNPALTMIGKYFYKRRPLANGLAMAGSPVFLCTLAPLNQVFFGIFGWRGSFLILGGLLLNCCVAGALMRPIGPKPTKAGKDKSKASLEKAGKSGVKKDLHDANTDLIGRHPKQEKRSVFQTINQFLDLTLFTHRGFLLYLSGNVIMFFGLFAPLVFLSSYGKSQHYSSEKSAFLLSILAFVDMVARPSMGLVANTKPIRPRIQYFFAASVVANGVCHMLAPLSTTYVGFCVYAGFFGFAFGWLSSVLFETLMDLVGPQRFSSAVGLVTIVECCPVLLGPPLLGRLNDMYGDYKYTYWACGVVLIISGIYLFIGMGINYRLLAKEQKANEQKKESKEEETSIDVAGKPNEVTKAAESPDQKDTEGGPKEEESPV
Method: as §1

[3] = MCT filter binding assay, yeast membranes transformed with vector only; details: ~2.5 nM radioligand
Method: as §1

[4] = test system: Jurkat T-cell membranes; format: binding, human
Method: Cells were harvested by centrifugation at 1500 g for 10 minutes. The cell pellets were washed twice with phosphate buffered saline (PBS) and centrifuged as above. The final cell pellet was resuspended in lysis buffer (50 mM HEPES (pH 7.8), 50 mM KCl, 10% glycerol, 0.1 mM EDTA, 1 mM DTT) and lysed by nitrogen cavitation. Unlysed cells and nuclei were removed by centrifugation at 1500 g for 10 minutes. The supernatant was then centrifuged at 100,000 g for 30 minutes at 4° C., and the pellet resuspended and homogenised in assay buffer (50 mM HEPES (pH 7.5), 1 mM EDTA, 150 mM NaCl). Aliquots of membrane preparation were stored at −80° C. until use.
Frozen Jurkat cell membranes were thawed on ice and then homogenised. Wheatgerm agglutinin-linked Scintillation Proximity Assay beads (Amersham) were rehydrated in assay buffer to a concentration of 100 mg/ml. 2 ml of Jurkat membranes were added per 0.5 ml (50 mg) of SPA beads and incubated overnight with constant agitation to allow the beads to coat with Jurkat membranes. […] 10 μl of test compound and 10 μl of radioligand were incubated with 180 μl of SPA beads and membranes (0.04 mg beads). […] The plates were incubated for 3 hours at room temperature before quantitation of radioactivity proximal to the SPA beads by scintillation counting.

## CC(C)Cc1nn(C)c(=O)c2c(SCCCO)n(Cc3ccccc3[125I])cc12 [Ligand A, 2,6-Dihydro-7-[(3-hydroxypropyl)thio]-6-[(2-[^125I]iodophenyl)methyl]-2-methyl-4-(2-methylpropyl)-1H-pyrrolo[3,4-d]pyridazin-1-one]
[1]; MCT3 (2 ug)
  Specific binding (cpm) Average: 0 cpm
[1]; MCT3 (20 ug)
  Specific binding (cpm) Average: 0 cpm
[2]; MCT1 (2 ug)
  Specific binding (cpm) Average: 88841 cpm
[2]; MCT1 (20 ug)
  Specific binding (cpm) Average: 177453 cpm
[3]; vector (2 ug)
  Specific binding (cpm) Average: 1735 cpm
[3]; vector (20 ug)
  Specific binding (cpm) Average: 0 cpm
[4]
  125I-ligand A binding (cpm), Specific binding (Total - Non-specific): 1991 cpm
[4]; approximately 0.1 nM radioligand, vehicle alone
  125I-ligand A binding (cpm), Total binding: 2490 ± 32 cpm
[4]; in the presence of 1 μM Ligand 1
  125I-ligand A binding (cpm), Non-specific binding: 499 ± 20 cpm

Source: patent US20040072746A1, “Inhibitors of monocarboxylate transport” (priority 2001, published 2004)
